Data published in ChEMBL document CHEMBL3596188, “Synthesis and structure-activity relationship of aminoarylthiazole derivatives as correctors of the chloride transport defect in cystic fibrosis” (Eur J Med Chem, 2015).
Calls of active or inactive are those of the source.

What was measured:
Assay type in all cases: cell-based
[1] = tested on: Cystic fibrosis transmembrane conductance regulator (Homo sapiens), P13569 [F508del]; experiment: Corrector activity at CFTR F508del mutant (unknown origin) expressed in human CFBE41o cells assessed as iodide influx at 10 uM after 24 hrs by HS-YFP assay
[2] = biological target: Cystic fibrosis transmembrane conductance regulator (Homo sapiens, UniProt P13569, F508DEL); experiment: (§1) Potentiator activity at CFTR F508del mutant (unknown origin) expressed in human CFBE41o cells assessed as increase in iodine influx measured after 30 mins incubation following rescue of F508del-CFTR by low temperature for 24 hrs by HS-YFP assay
[3] = biological target: T1, Cystic fibrosis transmembrane conductance regulator (Homo sapiens, UniProt P13569); experiment: Corrector activity at CFTR F508del mutant (unknown origin) expressed in human CFBE41o cells assessed as iodide influx after 24 hrs by HS-YFP assay; conditions: cfbe41o
[4] = biological target: T1, Cystic fibrosis transmembrane conductance regulator; experiment: as §1; conditions: cfbe41o

Chain of Cystic fibrosis transmembrane conductance regulator (Homo sapiens), P13569 [F508del] (P13569 as listed by the source): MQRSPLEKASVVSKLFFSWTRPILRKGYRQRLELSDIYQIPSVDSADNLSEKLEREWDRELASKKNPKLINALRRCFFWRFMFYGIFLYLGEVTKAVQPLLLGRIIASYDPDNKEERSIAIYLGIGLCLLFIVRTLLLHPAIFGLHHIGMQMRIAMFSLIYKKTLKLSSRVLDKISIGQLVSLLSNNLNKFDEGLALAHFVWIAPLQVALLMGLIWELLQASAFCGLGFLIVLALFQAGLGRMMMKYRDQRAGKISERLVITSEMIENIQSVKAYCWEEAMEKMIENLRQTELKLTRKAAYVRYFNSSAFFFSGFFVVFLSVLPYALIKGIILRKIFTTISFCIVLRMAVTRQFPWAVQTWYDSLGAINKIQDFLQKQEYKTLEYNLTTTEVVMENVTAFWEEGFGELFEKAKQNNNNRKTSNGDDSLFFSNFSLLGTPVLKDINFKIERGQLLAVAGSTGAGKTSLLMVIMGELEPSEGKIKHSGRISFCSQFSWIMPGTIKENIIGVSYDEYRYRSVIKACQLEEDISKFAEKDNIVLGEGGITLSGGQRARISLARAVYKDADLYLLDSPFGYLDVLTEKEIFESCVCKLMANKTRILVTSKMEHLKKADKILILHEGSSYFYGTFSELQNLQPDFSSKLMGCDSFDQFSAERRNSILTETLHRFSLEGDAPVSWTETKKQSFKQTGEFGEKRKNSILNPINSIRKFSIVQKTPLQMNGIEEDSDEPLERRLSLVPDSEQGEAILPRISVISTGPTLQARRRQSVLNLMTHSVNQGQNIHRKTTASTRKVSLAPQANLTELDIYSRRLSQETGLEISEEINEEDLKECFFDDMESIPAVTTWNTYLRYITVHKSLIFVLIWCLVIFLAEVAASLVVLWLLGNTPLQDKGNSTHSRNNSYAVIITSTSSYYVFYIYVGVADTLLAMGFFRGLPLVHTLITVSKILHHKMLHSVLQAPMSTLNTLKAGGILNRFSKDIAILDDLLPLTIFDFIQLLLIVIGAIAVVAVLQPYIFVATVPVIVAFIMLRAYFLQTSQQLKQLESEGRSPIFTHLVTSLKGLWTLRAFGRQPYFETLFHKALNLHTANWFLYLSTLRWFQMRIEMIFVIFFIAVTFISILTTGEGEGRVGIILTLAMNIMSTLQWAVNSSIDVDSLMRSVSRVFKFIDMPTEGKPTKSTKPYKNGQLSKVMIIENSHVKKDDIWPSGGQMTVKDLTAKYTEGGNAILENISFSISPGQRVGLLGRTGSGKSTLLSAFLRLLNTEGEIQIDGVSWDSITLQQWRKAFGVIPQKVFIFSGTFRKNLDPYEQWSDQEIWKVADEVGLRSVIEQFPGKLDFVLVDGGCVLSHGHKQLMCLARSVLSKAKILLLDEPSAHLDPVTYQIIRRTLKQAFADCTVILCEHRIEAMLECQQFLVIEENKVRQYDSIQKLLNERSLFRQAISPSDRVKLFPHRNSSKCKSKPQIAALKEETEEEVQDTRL
T1 sequence (P13569 as listed by the source): as above
Chain of Cystic fibrosis transmembrane conductance regulator (Homo sapiens, UniProt P13569, F508DEL) (P13569 as listed by the source): as above

## CSc1cccc(Nc2nc(-c3nnn(-c4cc(Cl)cc(Cl)c4)c3C)cs2)c1
[1]
  Activity: inactive

## CSc1cccc(Nc2nc(Cc3ccc(Br)cc3)cs2)c1
[1]
  Activity: inactive

## CSc1cccc(Nc2nc(-c3ccc(CCCl)cc3)cs2)c1
[1]
  Activity: inactive

## CSc1cccc(Nc2nc(-c3ccc4c(c3)OCO4)cs2)c1
[1]
  Activity: inactive
[2]
  EC50: 71 µM
[3]
  EC50: Not Active

## CSc1cccc(Nc2nc(-c3cccc(OCC(=O)OC(C)(C)C)c3)cs2)c1
[1]
  Activity: inactive

## COc1ccccc1-c1csc(Nc2cccc(SC)c2)n1
[1]
  Activity: inactive

## O=C(Nc1nc(-c2ccc(Br)cc2)cs1)c1ccncc1
[1]
  Activity: inactive

## CSc1cccc(Nc2nc(-c3ccc(Cl)cc3Cl)cs2)c1
[1]
  Activity: inactive

## CSc1cccc(Nc2nc(-c3ccc4c(c3)ncn4C)cs2)c1
[1]
  Activity: inactive

## CSc1cccc(Nc2nc(-c3cc(C)cs3)cs2)c1
[1]
  Activity: inactive

## CSc1cccc(Nc2nc(-c3cc(C)n(-c4ccc(Cl)cc4)c3C)cs2)c1
[1]
  Activity: inactive

## CSc1cccc(Nc2nc(-c3cccc(NC(C)=O)c3)cs2)c1
[1]
  Activity: inactive

## CSc1cccc(Nc2nc(-c3cc(-c4ccc(Cl)cc4)no3)cs2)c1
[1]
  Activity: inactive

## CSc1cccc(Nc2nc(-c3cnc(CS(=O)(=O)c4ccccn4)s3)cs2)c1
[1]
  Activity: inactive

## Brc1ccc(-c2csc(NCc3ccccc3)n2)cc1
[1]
  Activity: inactive

## Sc1cccc(Nc2nc(-c3cccc(Cl)c3)cs2)c1
[1]
  Activity: inactive

## CSc1cccc(Nc2nc(-c3cc(Cl)ccc3Cl)cs2)c1
[1]
  Activity: inactive

## CSc1cccc(Nc2nc(-c3cccc(F)c3)cs2)c1
[1]
  Activity: inactive

## CSc1cccc(Nc2nc(-c3cc4ccccc4o3)cs2)c1
[1]
  Activity: inactive

## CSc1cccc(Nc2nc3ccc(Br)cc3s2)c1
[1]
  Activity: inactive

## CC(=O)Oc1ccccc1C(=O)Nc1nc(-c2ccc(Br)cc2)cs1
[1]
  Activity: inactive

## CSc1cccc(Nc2nc(-c3cc(Cl)c(O)c(Cl)c3)cs2)c1
[1]
  Activity: Active

## CSc1cccc(Nc2nc(-c3ccc(Br)cc3)c(C)s2)c1
[1]
  Activity: inactive

## CSc1cccc(Nc2nc(-c3ccc(F)c(Cl)c3)cs2)c1
[1]
  Activity: Active

## CCCCCc1csc(-c2csc(Nc3cccc(SC)c3)n2)c1
[1]
  Activity: inactive

## CSc1cccc(Nc2nc(-c3cc(Br)ccc3O)cs2)c1
[1]
  Activity: inactive

## CSc1cccc(Nc2nc(-c3c(Cl)ccc(F)c3Cl)cs2)c1
[1]
  Activity: inactive

## CSc1cccc(Nc2nc(-c3cccc(Br)c3)cs2)c1
[1]
  Activity: Active

## CSc1cccc(N(C)c2nc(-c3cccc(Cl)c3)cs2)c1
[1]
  Activity: inactive

## CSc1cccc(Nc2nc(-c3cn(-c4ccccc4)c(C)n3)cs2)c1
[1]
  Activity: inactive

## CSc1cccc(Nc2nc(-c3cccc(O)c3)cs2)c1
[1]
  Activity: inactive

## CSc1cccc(Nc2nc(-c3ccccn3)cs2)c1
[1]
  Activity: inactive

## CSc1cccc(Nc2nc(-c3ccc(Cl)c(C)c3)cs2)c1
[1]
  Activity: inactive

## CSc1cccc(Nc2nc(-c3cc(Cl)cc(C(F)(F)F)c3)cs2)c1
[1]
  Activity: Active
[4]
  EC50: Not Active

## CCCCCc1ccc(-c2csc(Nc3cccc(SC)c3)n2)cc1
[1]
  Activity: inactive

## CSc1cccc(Nc2nc(-c3cccnc3)cs2)c1
[1]
  Activity: inactive

## CCc1ccc(Nc2nc(-c3cccc(Cl)c3)cs2)cc1SC
[1]
  Activity: Active

## CCN(CC)c1ccc(-c2csc(Nc3cccc(SC)c3)n2)cc1
[1]
  Activity: inactive

## Nc1nc(-c2ccc(Br)cc2)cs1
[1]
  Activity: inactive

## COc1cc2c(cc1OC)CN(c1csc(Nc3cccc(SC)c3)n1)CC2
[1]
  Activity: inactive

## CSc1cccc(Nc2nc(-c3ccc(-c4ccccn4)s3)cs2)c1
[1]
  Activity: inactive

## CCSc1cccc(Nc2nc(-c3cccc(Cl)c3)cs2)c1
[1]
  Activity: inactive

## CSc1cccc(Nc2nc(-c3ccccc3C)cs2)c1
[1]
  Activity: inactive

## CSc1cccc(Nc2nc(-c3ccc(C(F)(F)F)cc3)cs2)c1
[1]
  Activity: inactive

## CSc1cccc(Nc2nc(-c3nccs3)cs2)c1
[1]
  Activity: inactive
[2]
  EC50: 9.5 µM
[3]
  EC50: Not Active

## CSc1cccc(Nc2nc(C)cs2)c1
[1]
  Activity: inactive

## Brc1ccc(-c2csc(NC3CCCCC3)n2)cc1
[1]
  Activity: inactive

## Brc1ccc(-c2csc(N(Cc3ccccc3)Cc3ccccc3)n2)cc1
[1]
  Activity: inactive

## CSc1cccc(Nc2nc(-c3cc(Cl)cc(OC(F)(F)F)c3)cs2)c1
[1]
  Activity: inactive

## CSc1cccc(Nc2nc(-c3ccc(Cl)cc3)c(-c3ccc(C)cc3)s2)c1
[1]
  Activity: inactive

## CCCSc1cccc(Nc2nc(-c3cccc(Cl)c3)cs2)c1
[1]
  Activity: inactive

## CSc1cccc(Nc2nc(-c3cc(Cl)cs3)cs2)c1
[1]
  Activity: inactive
[2]
  EC50: 15 µM
[3]
  EC50: Not Active

## CSc1cccc(Nc2nc(-c3ccc(S(C)(=O)=O)cc3)cs2)c1
[1]
  Activity: inactive

## CSc1cccc(Nc2nc(-c3nc4ccccc4s3)cs2)c1
[1]
  Activity: inactive

## CSc1cccc(Nc2nc(-c3cc(Cl)cc(Cl)c3O)cs2)c1
[1]
  Activity: inactive

## CSc1cccc(Nc2nc(-c3cccc(C(F)(F)F)c3)cs2)c1
[1]
  Activity: inactive

## CSc1cccc(Nc2nc(-c3ccc(O)c(O)c3)cs2)c1
[1]
  Activity: inactive

## CSc1cccc(Nc2nc(-c3ccsc3)cs2)c1
[1]
  Activity: inactive

## COc1ccc(-c2csc(Nc3cccc(SC)c3)n2)cc1
[1]
  Activity: inactive

## CSc1cccc(Nc2nc(-c3ccc(F)c(Br)c3)cs2)c1
[1]
  Activity: Active
[4]
  EC50: Not Active

## CSc1cccc(Nc2nc(-c3cccc(SC)c3)cs2)c1
[1]
  Activity: inactive

## CSc1cccc(Nc2nc(-c3ccc(Br)c([N+](=O)[O-])c3)cs2)c1
[1]
  Activity: inactive

## CSc1cccc(Nc2nc(-c3cccc([N+](=O)[O-])c3)cs2)c1
[1]
  Activity: inactive

## O=C(Nc1nc(-c2ccc(Br)cc2)cs1)c1ccccc1
[1]
  Activity: inactive

## CSc1cccc(Nc2nc(-c3nc(C)cs3)cs2)c1
[1]
  Activity: inactive

## CSc1cccc(Nc2nc(-c3c(-c4ccccc4)noc3C)cs2)c1
[1]
  Activity: inactive

## COc1ccc(-c2csc(Nc3cccc(SC)c3)n2)cc1Cl
[1]
  Activity: inactive

## CSc1cccc(Nc2nc(-c3ccc([N+](=O)[O-])cc3)cs2)c1
[1]
  Activity: inactive

## CSc1cccc(Nc2nc(-c3ccccc3)c(C(=O)c3ccccc3)s2)c1
[1]
  Activity: inactive

## CSc1cccc(Nc2nc(-c3cccc(C)c3)cs2)c1
[1]
  Activity: inactive

## CSc1cccc(Nc2nc(-c3nc4ccccc4n3C)cs2)c1
[1]
  Activity: inactive

## CSc1cccc(Nc2nc(-c3ccccc3)c(C)s2)c1
[1]
  Activity: inactive

## CSc1cccc(Nc2nc(-c3cccc(I)c3)cs2)c1
[1]
  Activity: inactive

## CSc1cccc(Nc2nc(-c3ccc4sccc4c3)cs2)c1
[1]
  Activity: Active

## Brc1ccc(-c2csc(N3CCCCC3)n2)cc1
[1]
  Activity: inactive

## CSc1cccc(Nc2nc(-c3ccc4c(c3)OCCCO4)cs2)c1
[1]
  Activity: inactive

## CSc1cccc(Nc2nc(-c3ccc4c(c3)C(C)(C)CCC4(C)C)cs2)c1
[1]
  Activity: inactive

## CSc1cccc(Nc2nc(-c3ccc(F)cc3)cs2)c1
[1]
  Activity: inactive
[2]
  EC50: 27 µM
[3]
  EC50: Not Active

## CSc1cccc(Nc2nc(-c3cccc(Cl)c3Cl)cs2)c1
[1]
  Activity: inactive

## CSc1cccc(Nc2nc(-c3cnc4ccccc4c3)cs2)c1
[1]
  Activity: inactive

## CSc1cccc(Nc2nc(-c3cc(Cl)ccc3O)cs2)c1
[1]
  Activity: Active

## CSc1cccc(Nc2nc(-c3ccc(C)cc3C)cs2)c1
[1]
  Activity: inactive

## CSc1cccc(Nc2nc(-c3ccco3)cs2)c1
[1]
  Activity: inactive

## O=C(Nc1nc(-c2ccc(Br)cc2)cs1)c1ccccc1O
[1]
  Activity: inactive

## CSc1cccc(Nc2nc(-c3ccccc3Cl)cs2)c1
[1]
  Activity: inactive

## CSc1cccc(Nc2nc(-c3cc4ccccc4oc3=O)cs2)c1
[1]
  Activity: inactive

## CSc1cccc(Nc2nc(-c3ccc4c(c3)OCCO4)cs2)c1
[1]
  Activity: inactive

## CSc1cccc(Nc2nc(-c3cc(OCC(=O)O)c(OCC(=O)O)c(OCC(=O)O)c3)cs2)c1
[1]
  Activity: inactive

## COc1ccc(-c2csc(Nc3cccc(SC)c3)n2)c(OC)c1
[1]
  Activity: inactive

## CCCOc1ccc(-c2csc(Nc3cccc(SC)c3)n2)cc1
[1]
  Activity: inactive

## CSc1cccc(Nc2nc(-c3cccc(OCC(=O)O)c3)cs2)c1
[1]
  Activity: inactive

## CSc1cccc(Nc2nc(-c3cc(C(C)(C)C)c(O)c(C(C)(C)C)c3)cs2)c1
[1]
  Activity: inactive

## CSc1cccc(Nc2nc(-c3cc(OC(C)=O)c(OC(C)=O)c(OC(C)=O)c3)cs2)c1
[1]
  Activity: inactive

## CSc1cccc(Nc2nc(-c3ccc(Cl)c([N+](=O)[O-])c3)cs2)c1
[1]
  Activity: inactive

## CSc1cccc(N(Cc2ccccc2)c2nc(-c3cccc(Cl)c3)cs2)c1
[1]
  Activity: inactive

## CSc1cccc(Nc2nc(CC(=O)Nc3ccccc3)cs2)c1
[1]
  Activity: inactive

## CSc1cccc(Nc2nc(-c3cc(F)cc(Cl)c3)cs2)c1
[1]
  Activity: inactive

## CSc1cccc(Nc2nc(-c3ccc(C#N)cc3)cs2)c1
[1]
  Activity: inactive
[2]
  EC50: 34 µM
[3]
  EC50: Not Active

## CSc1cccc(Nc2nc(-c3ccc4c(c3)NC(=O)CS4)cs2)c1
[1]
  Activity: inactive

## CSc1cccc(Nc2nc(-c3cc(Cl)cc(Cl)c3F)cs2)c1
[1]
  Activity: inactive

## CSc1cccc(Nc2nc(-c3cccc(Cl)c3)c(C)s2)c1
[1]
  Activity: inactive

## CSc1cccc(Nc2nc(-c3ccc(CC(F)(F)F)cc3)cs2)c1
[1]
  Activity: inactive
